# Residues, ends and D or L forms follow the SMILES beside them.
# Assays:
# [1] = test system: all gram-negative bacterial strains; assay: Mean MIC and therapeutic index, gram-negative strains; assay type: cell-based; settings: four gram-negative strains
# Method: (§1) The minimal inhibitory concentrations (MICs) of peptide derivatives versus planktonic bacteria were assessed using a modification of the broth microdilution assay previously described in the National Committee for Clinical Laboratory Standards (NCCLS). In brief, bacteria at mid-logarithmic growth were collected by centrifugation at 2,500 × g for 5 min. Subsequently, the pellet was resuspended and adjusted in Mueller-Hinton Broth (MHB; BD Bacto™, USA) to an OD620 of 0.05. Fifty µL of bacterial suspensions was transferred to 96-well microplates. Later, 50 µL of peptide derivatives at 0.98–250 µg/mL in 10 mM PBS, was added to wells and incubated for 24 h at 37°C with continuous shaking at 220 rpm. […] The experiments were done in three technical replicates and repeated independently.
# (§2) The therapeutic index (TI) is widely used for evaluating a peptide’s efficacy and safety. It is the ratio between the minimum hemolytic concentration (MHC, the concentration causing 10% hemolysis) and the geometric mean (GM) value of the MIC [15]. […] While, both lysine-substituted peptides (BiF2_7K and BiF2_5K7K) had higher TIs against all tested biofilm-forming bacteria than did the two parent peptides, and the TI of BiF2_5K7K was higher than that of BiF2_7K.
# [2] = test system: all gram-positive bacterial strains; assay: Mean MIC and therapeutic index, gram-positive strains; assay type: cell-based; settings: four gram-positive strains
# Method: as §1, §2
# [3] = test system: Acinetobacter baumanii MT strain; assay: Broth microdilution MIC / MBC; assay type: cell-based; settings: 24 h, 37°C; for MIC: broth microdilution, MHB, 0.98-250 µg/mL, visible inspection; for MBC: plating of non-turbid wells on TSA
# Method: as §1
# (§3) To determine minimal bactericidal concentrations (MBCs) of the peptides, 50 µL of supernatant from non-turbid wells was plated on TSA, and the number of colony-forming units (CFUs) was observed after 24 h of incubation at 37°C. MBC was defined as the minimum concentration of peptide at which no bacterial colony was observed on the plate.
# [4] = test system: Staphylococcus epidermidis ATCC 35984; assay: Broth microdilution MIC / MBC; assay type: cell-based; settings: 24 h, 37°C; for MIC: broth microdilution, MHB, 0.98-250 µg/mL, visible inspection; for MBC: plating of non-turbid wells on TSA
# Method: as §1, §3
# [5] = test system: Escherichia coli ATCC 25922; assay: Broth microdilution MIC / MBC; assay type: cell-based; settings: 24 h, 37°C; for MBC: plating of non-turbid wells on TSA; for MIC: broth microdilution, MHB, 0.98-250 µg/mL, visible inspection
# Method: as §1, §3
# [6] = test system: Listeria monocytogenes 10403s; assay: Broth microdilution MIC / MBC; assay type: cell-based; settings: 24 h, 37°C; for MIC: broth microdilution, MHB, 0.98-250 µg/mL, visible inspection; for MBC: plating of non-turbid wells on TSA
# Method: as §1, §3
# [7] = test system: Pseudomonas aeruginosa ATCC 27853; assay: Broth microdilution MIC / MBC; assay type: cell-based; settings: 24 h, 37°C; for MIC: broth microdilution, MHB, 0.98-250 µg/mL, visible inspection; for MBC: plating of non-turbid wells on TSA
# Method: as §1, §3
# [8] = test system: Salmonella Typhimurium ATCC 13311; assay: Broth microdilution MIC / MBC; assay type: cell-based; settings: 24 h, 37°C; for MIC: broth microdilution, MHB, 0.98-250 µg/mL, visible inspection; for MBC: plating of non-turbid wells on TSA
# Method: as §1, §3
# [9] = test system: Bacillus cereus ATCC 11778; assay: Broth microdilution MIC / MBC; assay type: cell-based; settings: 24 h, 37°C; for MIC: broth microdilution, MHB, 0.98-250 µg/mL, visible inspection; for MBC: plating of non-turbid wells on TSA
# Method: as §1, §3
# [10] = test system: human red blood cells (hRBCs); assay: Hemolysis activity (hemoglobin release); assay type: cell-based; settings: 1 h, 37°C; for hemolytic activity: at 250 µg/mL (maximum concentration tested); for MHC, minimum hemolytic concentration: peptide concentration causing 10% hemolysis of hRBCs, 2% hRBCs in 10 mM PBS, OD405
# Method: The effect of peptides on human red blood cells (hRBCs) was assessed by observing the release of hemoglobin upon treated with peptide. Briefly, the hRBCs were obtained from healthy volunteers and subsequently diluted in 10 mM PBS to a concentration of 2% hRBCs. An equal volume of 2% hRBCs and peptide at concentration of 0.98–250 µg/mL in 10 mM PBS mixtures were incubated for 1 h at 37°C. Following incubation, the suspension was centrifuged, then supernatants were collected and transferred to 96-well microplates for measurement of absorbance at OD of 405 nm (OD405). This study was performed in accordance with the Thammasat University Ethics Committee (COA No. 066/2562). Written informed consent was obtained from all volunteers.
# [11] = test system: human lung fibroblast MRC-5 cell lines (ATCC CCL-171); assay: MTT cytotoxicity assay; assay type: cell-based; settings: MRC-5, 24 h
# Method: The toxicity of peptide BiF2_5K7K against human lung fibroblast MRC-5 cell lines (ATCC CCL-171) was investigated by MTT colorimetric assay. Briefly, MRC-5 cells were cultured in Minimum Essential Medium [MEM; supplemented with 10% heat-inactivated FBS and 1% Penicillin-Streptomycin] in 5% CO2 at 37°C. Following an overnight incubation, MRC-5 cells were diluted to 10,000 cells/well and placed in 96-well microplates. Subsequently, they were exposed to BiF2_5K7K at 0.98 to 250 µg/mL. After incubation for 24 h, MTT solution (0.4 mg/mL) was added to each well and incubated for an additional 3 h under 5% CO2 at 37°C. The supernatant was then removed and 100 µL DMSO added, and absorbance was measured at 570 nm using a microplate reader.
# [12] = test system: Staphylococcus aureus ATCC 25923; assay: Broth microdilution MIC / MBC; assay type: cell-based; settings: 24 h, 37°C; for MIC: broth microdilution, MHB, 0.98-250 µg/mL, visible inspection; for MBC: plating of non-turbid wells on TSA
# Method: as §1, §3
# [13] = test system: biofilm-forming bacteria; assay: Antibacterial activity against the panel of planktonic biofilm-forming bacteria; assay type: cell-based
# Method: The biofilm-forming bacteria, including S. epidermidis ATCC 35984, Staphylococcus aureus ATCC 25923, Bacillus cereus ATCC 11778, Listeria monocytogenes 10403s, Pseudomonas aeruginosa ATCC 27853, Salmonella Typhimurium ATCC 13311, Escherichia coli ATCC 25922 and Acinetobacter baumanii MT strain, were used. All bacterial strains were grown on tryptic soy agar (TSA; BD Bacto™, USA) except E. coli and L. monocytogenes which were cultured on Luria agar (LA) and TSA supplemented with 0.6% Yeast Extract (TSAYE), respectively, at 37°C overnight. Subsequently, isolated colonies were inoculated and cultured in 5 mL of tryptic soy broth (TSB; BD Bacto™, USA), Luria Broth (LB), or TSB supplemented with 0.6% Yeast Extract (TSBYE) at 37°C for 16–18 h.
# The minimal inhibitory concentrations (MICs) of peptide derivatives versus planktonic bacteria were assessed using a modification of the broth microdilution assay previously described in the National Committee for Clinical Laboratory Standards (NCCLS). In brief, bacteria at mid-logarithmic growth were collected by centrifugation at 2,500 × g for 5 min. Subsequently, the pellet was resuspended and adjusted in Mueller-Hinton Broth (MHB; BD Bacto™, USA) to an OD620 of 0.05. Fifty µL of bacterial suspensions was transferred to 96-well microplates. […]
# [14] = test system: S. epidermidis (ATCC 35984) biofilm; assay: Biofilm-formation inhibitory activity, crystal violet staining; assay type: cell-based, Staphylococcus epidermidis; settings: CV staining, TSB, 10^6 CFU/mL, 24 h, 37°C, 0.98-250 µg/mL; for MBIC50: minimum concentration inhibiting biofilm formation more than 50%; for MBIC90: minimum concentration inhibiting biofilm formation more than 90%
# Method: The biofilm inhibitory activity of peptide derivatives was assessed by modified crystal violet (CV) staining. Briefly, the pellet of S. epidermidis (ATCC 35984) was collected through centrifugation of bacterial suspensions grown overnight at 2,500 × g for 5 min. Subsequently, the pellet was resuspended and diluted with TSB to a final concentration of 10^6 CFU/mL. Then, 50 µL of these diluted suspensions was transferred to 96-well microplates containing same volume of peptide derivatives in 10 mM phosphate buffer saline (PBS; Caisson Labs, USA), with concentrations ranging from 0.98 to 250 µg/mL. Vancomycin was used as positive control while TSB medium without bacteria was used as negative control. After 24 h of incubation and reaching static growth at 37°C, culture media as well as planktonic cells were removed, then the biofilm in each well was washed thrice with 0.85% NaCl. For CV staining, biofilms were fixed with 95% ethanol and stained with a 0.1% (v/v) CV solution for 15 min. After removal of excess dye, each well was washed thrice with 0.85% NaCl and resuspended in 95% ethanol to dissolve bound dye. Absorbance was determined at 570 nm using a Multiskan SkyHigh microplate reader (Thermo Scientific™, Singapore). All experiments were done in six technical replicates and repeated independently three times. Minimum biofilm inhibitory concentrations at 50% and 90% (MBIC50 and MBIC90) refers to concentrations of the peptide at which the inhibition of biofilm was at least 50% and 90%, respectively.
SMILES,"GM-, geometric mean of MIC values from all gram-negative bacterial strains [1] [µg/mL]","GM +, geometric mean of MIC values from all gram-positive bacterial strains [2] [µg/mL]",MIC [3] [µg/mL],MBC [3] [µg/mL],MIC [4] [µg/mL],MBC [4] [µg/mL],MBC [5] [µg/mL],MIC [6] [µg/mL],MBC [6] [µg/mL],MIC [7] [µg/mL],MBC [7] [µg/mL],MIC [8] [µg/mL],MBC [8] [µg/mL],MIC [9] [µg/mL],MBC [9] [µg/mL],MIC [12] [µg/mL],MBC [12] [µg/mL],MIC [5] [µg/mL],MBIC50 [14] [µg/mL],MBIC90 [14] [µg/mL],also measured
"CC[C@H](C)[C@H](NC(=O)CN)C(=O)NCC(=O)N[C@@H](C)C(=O)N[C@H](C(=O)N[C@@H](CC(C)C)C(=O)N[C@@H](CCCCN)C(=O)N[C@H](C(=O)N[C@@H](CC(C)C)C(=O)N[C@H](C(=O)N[C@H](C(=O)NCC(=O)N[C@@H](CC(C)C)C(=O)N1CCC[C@H]1C(=O)N[C@@H](C)C(=O)N[C@@H](CC(C)C)C(=O)N[C@H](C(=O)N[C@@H](CO)C(=O)N[C@@H](Cc1c[nH]c2ccccc12)C(=O)N[C@H](C(=O)N[C@@H](CCCCN)C(=O)N[C@@H](CCCNC(=N)N)C(=O)N[C@@H](CCCCN)C(=O)N[C@@H](CCCNC(=N)N)C(=O)N[C@@H](CCC(N)=O)C(=O)N[C@@H](CCC(N)=O)C(N)=O)[C@@H](C)CC)[C@@H](C)CC)[C@@H](C)O)[C@@H](C)O)C(C)C)C(C)C [Melittin, melittin, reference compound]",14.65,6.84,7.81,7.81,15.6,15.6,31.2,3.91,3.91,15.6,15.6,3.91,3.91,3.91,3.91,–,–,–,–,–,lysis of hRBCs ([10]; at 3.91 µg/mL): completely lysed; cytotoxic effect [11]: strong dose-dependent cytotoxic effect
CC[C@H](C)[C@H](NC(=O)[C@H](CC(C)C)NC(=O)[C@H](CCCCN)NC(=O)[C@@H](NC(=O)[C@H](CC(C)C)NC(=O)[C@@H](N)Cc1ccccc1)C(C)C)C(=O)N[C@@H](CC(C)C)C(N)=O [BiF] (H-FLVKLIL-NH2; N-terminus assumed),>250,>250,> 250,> 250,> 250,> 250,> 250,> 250,> 250,> 250,> 250,> 250,> 250,> 250,> 250,> 250,> 250,> 250,125,>250,"hRBCs lysed (hemolysis) ([10]; at 31.25 µg/mL): more than 20%; hemolytic activity [10]: 100%; MHC, minimum hemolytic concentration [10]: 15.63 µg/mL; antibacterial activity against target bacteria [13]: no antibacterial activity"
"CN[C@H](CC(C)C)C(=O)N[C@H]1C(=O)N[C@@H](CC(N)=O)C(=O)N[C@H]2C(=O)N[C@H]3C(=O)N[C@H](C(=O)N[C@H](C(=O)O)c4cc(O)cc(O)c4-c4cc3ccc4O)[C@H](O)c3ccc(c(Cl)c3)Oc3cc2cc(c3O[C@@H]2O[C@H](CO)[C@@H](O)[C@H](O)[C@H]2O[C@H]2C[C@](C)(N)[C@H](O)[C@H](C)O2)Oc2ccc(cc2Cl)[C@H]1O [vancomycin, reference compound]",–,–,–,–,–,–,–,–,–,–,–,–,–,–,–,–,–,–,3.91,3.91,–
CC[C@H](C)[C@H](NC(=O)[C@H](CC(C)C)NC(=O)[C@H](CCCCN)NC(=O)[C@@H](NC(=O)[C@H](CC(C)C)NC(=O)[C@@H](N)Cc1ccccc1)C(C)C)C(=O)N[C@@H](CCCCN)C(=O)N[C@@H](CCCCN)C(=O)N[C@H](C(=O)N[C@@H](CC(C)C)C(=O)N[C@@H](CCCNC(=N)N)C(=O)N[C@@H](CCCNC(=N)N)C(N)=O)[C@@H](C)CC [BiF2_7K] (H-FLVKLIKKILRR-NH2; N-terminus assumed),15.63,9.77,7.81,7.81,7.81,7.81,31.2,7.81,7.81,15.6,15.6,7.81,15.63,7.81,7.81,15.6,15.6,31.2,3.91,7.81,"hemolytic activity [10]: 60%; MHC, minimum hemolytic concentration [10]: 15.63 µg/mL"
CC[C@H](C)[C@H](NC(=O)[C@H](CC(C)C)NC(=O)[C@H](CCCCN)NC(=O)[C@@H](NC(=O)[C@H](CC(C)C)NC(=O)[C@@H](N)Cc1ccccc1)C(C)C)C(=O)N[C@@H](CC(C)C)C(=O)N[C@@H](CCCCN)C(=O)N[C@H](C(=O)N[C@@H](CC(C)C)C(=O)N[C@@H](CCCNC(=N)N)C(=O)N[C@@H](CCCNC(=N)N)C(N)=O)[C@@H](C)CC [BiF2] (H-FLVKLILKILRR-NH2; N-terminus assumed),42.97,31.25,62.5,62.5,31.25,62.5,31.2,15.63,31.25,15.63,31.25,62.5,62.5,15.6,15.6,62.5,62.5,31.2,125,250,"MHC, minimum hemolytic concentration [10]: 1.95 µg/mL"
